What was measured:
yellow nutsedge = assay: Test C postemergence; format: in vivo, Cyperus esculentus; conditions: for Plant response rating (0 to 100), Nutsedge, Yellow: 16 g ai/ha, 0 is no effect, 100 is complete control; for Nutsedge, Yellow plant response rating: 31 g ai/ha, 13 to 15 days; for Nutsedge, Yellow plant response rating / Plant response rating, Nutsedge, Yellow: scale 0 to 100 (0 no effect, 100 complete control)
Method in brief: (§1)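 Sown in loam/sand → sprayed pre-emergence; or grown to 1–4 leaves in peat mix → sprayed post-emergence. Same solvent/surfactant formulation both ways. Greenhouse 13–15 d. Score 0–100 visual.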

lambsquarters = assay: Test C postemergence; format: in vivo, Chenopodium album; conditions: for Plant response rating (0 to 100), Lambsquarters: 16 g ai/ha, 0 is no effect, 100 is complete control; for Lambsquarters plant response rating: 31 g ai/ha, 13 to 15 days; for Lambsquarters plant response rating / Plant response rating, Lambsquarters: scale 0 to 100 (0 no effect, 100 complete control)
Method in brief: as §1

pigweed = assay: Test A postemergence; format: in vivo, Amaranthus retroflexus; conditions: 0 to 100 scale where 0 is no effect and 100 is complete control; for Pigweed plant response rating: 125 g ai/ha; for Plant response rating, Pigweed: 500 g ai/ha
Method in brief: (§2)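 Pre- and postemergence greenhouse screen. Soil: loam + sand. Spray carrier: solvent mixture, non-phytotoxic, with surfactant. Post timing at 1–2 leaves, height 2–10 cm. Readout: visual injury on a 0–100 scale roughly 10 days after application, untreated plants as reference.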

barnyardgrass [1] = assay: Test A postemergence; format: in vivo, Echinochloa crus-galli; conditions: 0 to 100 scale where 0 is no effect and 100 is complete control; for Barnyardgrass plant response rating: 125 g ai/ha; for Plant response rating, Barnyardgrass: 500 g ai/ha
Method in brief: as §2

rice = assay: Test B flooded paddy test; format: in vivo, Oryza sativa; conditions: Flood, 250 g ai/ha; 0 to 100 scale where 0 is no effect and 100 is complete control
Method in brief: (§3)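 Greenhouse flooded-pot test: compounds dosed into 3 cm standing water over 2-leaf plants, flood held constant. Rated visually after 13–15 days on 0–100 (complete control = 100); a dash marks no test result.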

chickweed = assay: Test C postemergence; format: in vivo, Stellaria media; conditions: for Plant response rating (0 to 100), Chickweed: 16 g ai/ha, 0 is no effect, 100 is complete control; for Chickweed plant response rating: 31 g ai/ha, 13 to 15 days; for Chickweed plant response rating / Plant response rating, Chickweed: scale 0 to 100 (0 no effect, 100 complete control)
Method in brief: as §1

barnyardgrass [2] = assay: Test A preemergence; format: in vivo, Echinochloa crus-galli; conditions: for Barnyardgrass plant response rating: 500 g ai/ha
Method in brief: as §2

barnyardgrass [3] = assay: Test C postemergence; format: in vivo, Echinochloa crus-galli; conditions: for Barnyardgrass plant response rating: 31 g ai/ha, 13 to 15 days; for Barnyardgrass plant response rating / Plant response rating, Barnyardgrass: scale 0 to 100 (0 no effect, 100 complete control)
Method in brief: as §1

large (Lg) crabgrass [4] = assay: Test C postemergence; format: in vivo, Digitaria sanguinalis; conditions: for Plant response rating (0 to 100), Crabgrass, Large: 16 g ai/ha, 0 is no effect, 100 is complete control; for Crabgrass, Large plant response rating: 31 g ai/ha, 13 to 15 days; for Crabgrass, Large plant response rating / Plant response rating, Crabgrass, Large: scale 0 to 100 (0 no effect, 100 complete control)
Method in brief: as §1

sedge, umbrella = assay: Test B flooded paddy test; format: in vivo, Cyperus difformis; conditions: Flood, 250 g ai/ha; 0 to 100 scale where 0 is no effect and 100 is complete control
Method in brief: as §3

wild oat = assay: Test C postemergence; format: in vivo, Avena fatua; conditions: for Plant response rating (0 to 100), Oat, Wild: 16 g ai/ha, 0 is no effect, 100 is complete control; for Oat, Wild plant response rating: 31 g ai/ha, 13 to 15 days; for Oat, Wild plant response rating / Plant response rating, Oat, Wild: scale 0 to 100 (0 no effect, 100 complete control)
Method in brief: as §1

barnyardgrass [5] = assay: Test B flooded paddy test; format: in vivo, Echinochloa crus-galli; conditions: Flood, 250 g ai/ha; 0 to 100 scale where 0 is no effect and 100 is complete control
Method in brief: as §3

large (Lg) crabgrass [6] = assay: Test A preemergence; format: in vivo, Digitaria sanguinalis; conditions: for Crabgrass, Large plant response rating: 500 g ai/ha
Method in brief: as §2

giant foxtail = assay: Test C postemergence; format: in vivo, Setaria faberii; conditions: for Plant response rating (0 to 100), Foxtail, Giant: 16 g ai/ha, 0 is no effect, 100 is complete control; for Foxtail, Giant plant response rating: 31 g ai/ha, 13 to 15 days; for Foxtail, Giant plant response rating / Plant response rating, Foxtail, Giant: scale 0 to 100 (0 no effect, 100 complete control)
Method in brief: as §1

morningglory = assay: Test C postemergence; format: in vivo, Ipomoea coccinea; conditions: for Plant response rating (0 to 100), Morningglory: 16 g ai/ha, 0 is no effect, 100 is complete control; for Morningglory plant response rating: 31 g ai/ha, 13 to 15 days; for Morningglory plant response rating / Plant response rating, Morningglory: scale 0 to 100 (0 no effect, 100 complete control)
Method in brief: as §1

[7] = 125 g ai/ha, postemergence, visual rating
[8] = 0 to 100 scale where 0 is no effect and 100 is complete control
[9] = 125 g ai/ha, 0 to 100 scale where 0 is no effect and 100 is complete control

Compound: Cc1cnc(Oc2cccc(C#N)c2-n2cc(C(F)(F)F)cn2)nc1 [Compound 180]
- Plant response rating (0 to 100), Nutsedge, Yellow (yellow nutsedge; postemergence): 0
- Nutsedge, Yellow plant response rating (yellow nutsedge; postemergence, visual rating): 0
- Plant response rating, Nutsedge, Yellow (yellow nutsedge; [7]): 10
- Plant response rating, Nutsedge, Yellow (yellow nutsedge; Postemergence, 62 g ai/ha): 10
- Plant response rating (0 to 100), Lambsquarters (lambsquarters; postemergence): 35
- Lambsquarters plant response rating (lambsquarters; postemergence, visual rating): 55
- Plant response rating, Lambsquarters (lambsquarters; [7]): 85
- Plant response rating, Lambsquarters (lambsquarters; Postemergence, 62 g ai/ha): 75
- Pigweed plant response rating (pigweed): 100
- Plant response rating, Pigweed (pigweed): 100
- Barnyardgrass plant response rating (barnyardgrass [1]): 90
- Plant response rating, Barnyardgrass (barnyardgrass [1]): 100
- Plant response rating, Rice (rice): 40
- Plant response rating (0 to 100), Chickweed (chickweed; postemergence): 50
- Chickweed plant response rating (chickweed; postemergence, visual rating): 60
- Plant response rating, Chickweed (chickweed; [7]): 80
- Plant response rating, Chickweed (chickweed; Postemergence, 62 g ai/ha): 70
- Barnyardgrass plant response rating (0 to 100 scale, 0 is no effect, 100 is complete control) (barnyardgrass [2]; 125 g ai/ha): 100
- Barnyardgrass plant response rating (barnyardgrass [2]; [8]): 100
- Barnyardgrass plant response rating (barnyardgrass [3]; postemergence, visual rating): 5
- Plant response rating, Barnyardgrass (barnyardgrass [3]; [7]): 20
- Plant response rating, Barnyardgrass (barnyardgrass [3]; Postemergence, 62 g ai/ha): 5
- Plant response rating (0 to 100), Crabgrass, Large (large (Lg) crabgrass [4]; postemergence): 5
- Crabgrass, Large plant response rating (large (Lg) crabgrass [4]; postemergence, visual rating): 5
- Plant response rating, Crabgrass, Large (large (Lg) crabgrass [4]; [7]): 35
- Plant response rating, Crabgrass, Large (large (Lg) crabgrass [4]; Postemergence, 62 g ai/ha): 5
- Plant response rating, Sedge, Umbrella (sedge, umbrella): 80
- Plant response rating (0 to 100), Oat, Wild (wild oat; postemergence): 5
- Oat, Wild plant response rating (wild oat; postemergence, visual rating): 10
- Plant response rating, Oat, Wild (wild oat; [7]): 30
- Plant response rating, Oat, Wild (wild oat; Postemergence, 62 g ai/ha): 20
- Plant response rating, Barnyardgrass (barnyardgrass [5]): 60
- Crabgrass, Large plant response rating (0 to 100 scale) (large (Lg) crabgrass [6]; 125 g ai/ha): 100
- Crabgrass, Large plant response rating (large (Lg) crabgrass [6]; [8]): 100
- Plant response rating (0 to 100), Foxtail, Giant (giant foxtail; postemergence): 5
- Foxtail, Giant plant response rating (giant foxtail; postemergence, visual rating): 5
- Plant response rating, Foxtail, Giant (giant foxtail; [7]): 80
- Plant response rating, Foxtail, Giant (giant foxtail; Postemergence, 62 g ai/ha): 10
- Plant response rating (0 to 100), Morningglory (morningglory; postemergence): 45
- Morningglory plant response rating (morningglory; postemergence, visual rating): 65
- Plant response rating, Morningglory (morningglory; [7]): 90
- Plant response rating, Morningglory (morningglory; Postemergence, 62 g ai/ha): 75

Compound: Fc1cccc(Oc2ncc(Cl)cn2)c1-n1cc(Cl)cn1 [Compound 177]
- Plant response rating (0 to 100), Nutsedge, Yellow (yellow nutsedge; postemergence): 0
- Nutsedge, Yellow plant response rating (yellow nutsedge; postemergence, visual rating): 5
- Plant response rating, Nutsedge, Yellow (yellow nutsedge; [7]): 10
- Plant response rating, Nutsedge, Yellow (yellow nutsedge; Postemergence, 62 g ai/ha): 5
- Plant response rating (0 to 100), Lambsquarters (lambsquarters; postemergence): 60
- Lambsquarters plant response rating (lambsquarters; postemergence, visual rating): 65
- Plant response rating, Lambsquarters (lambsquarters; [7]): 90
- Plant response rating, Lambsquarters (lambsquarters; Postemergence, 62 g ai/ha): 75
- Pigweed plant response rating (pigweed): 100
- Plant response rating, Pigweed (pigweed): 100
- Barnyardgrass plant response rating (barnyardgrass [1]): 40
- Plant response rating, Barnyardgrass (barnyardgrass [1]): 100
- Plant response rating, Rice (rice): 15
- Plant response rating (0 to 100), Chickweed (chickweed; postemergence): 50
- Chickweed plant response rating (chickweed; postemergence, visual rating): 50
- Plant response rating, Chickweed (chickweed; [7]): 85
- Plant response rating, Chickweed (chickweed; Postemergence, 62 g ai/ha): 55
- Plant response rating, Barnyardgrass (barnyardgrass [2]; [9]): 70
- Barnyardgrass plant response rating (barnyardgrass [2]; [8]): 100
- Plant response rating (0 to 100), Barnyardgrass (barnyardgrass [3]; 16 g ai/ha, postemergence, 0 is no effect, 100 is complete control): 5
- Barnyardgrass plant response rating (barnyardgrass [3]; postemergence, visual rating): 5
- Plant response rating, Barnyardgrass (barnyardgrass [3]; [7]): 10
- Plant response rating, Barnyardgrass (barnyardgrass [3]; Postemergence, 62 g ai/ha): 10
- Plant response rating (0 to 100), Crabgrass, Large (large (Lg) crabgrass [4]; postemergence): 5
- Crabgrass, Large plant response rating (large (Lg) crabgrass [4]; postemergence, visual rating): 5
- Plant response rating, Crabgrass, Large (large (Lg) crabgrass [4]; [7]): 10
- Plant response rating, Crabgrass, Large (large (Lg) crabgrass [4]; Postemergence, 62 g ai/ha): 10
- Plant response rating, Sedge, Umbrella (sedge, umbrella): 100
- Plant response rating (0 to 100), Oat, Wild (wild oat; postemergence): 5
- Oat, Wild plant response rating (wild oat; postemergence, visual rating): 0
- Plant response rating, Oat, Wild (wild oat; [7]): 30
- Plant response rating, Oat, Wild (wild oat; Postemergence, 62 g ai/ha): 10
- Plant response rating, Barnyardgrass (barnyardgrass [5]): 30
- Plant response rating, Crabgrass, Large (large (Lg) crabgrass [6]; [9]): 100
- Crabgrass, Large plant response rating (large (Lg) crabgrass [6]; [8]): 100
- Plant response rating (0 to 100), Foxtail, Giant (giant foxtail; postemergence): 5
- Foxtail, Giant plant response rating (giant foxtail; postemergence, visual rating): 10
- Plant response rating, Foxtail, Giant (giant foxtail; [7]): 20
- Plant response rating, Foxtail, Giant (giant foxtail; Postemergence, 62 g ai/ha): 10
- Plant response rating (0 to 100), Morningglory (morningglory; postemergence): 20
- Morningglory plant response rating (morningglory; postemergence, visual rating): 10
- Plant response rating, Morningglory (morningglory; [7]): 85
- Plant response rating, Morningglory (morningglory; Postemergence, 62 g ai/ha): 80

From US9695155B2, “Herbicidal substituted pyrimidinyloxy benzene compounds” (E. I. DU PONT DE NEMOURS AND COMPANY, priority 2013, dated 2017)
